Results published in patent publication US20130296230A1, “METHOD FOR TREATING MALARIA, METHOD FOR KILLING MALARIA PARASITE, AND USE OF THE METHODS” (RIKEN, priority 2010, published 2013).
Like-named read-outs stand apart in the source and are kept apart here.

Legend:
[1] = system: falciparum malaria parasite FCR-3 strain; test: Assay for examining inhibition of development of P. falciparum (synchronized culture, Giemsa smear parasitaemia count); format: cell-based
Procedure: An FCR-3 strain of falciparum malaria parasite (P. falciparum) (reference document: Hatabu T, Takada T, Taguchi N, Suzuki M, Sato K, Kano S. (2005) Antimicrob Agents Chemother. 2005 February; 49(2):493-6.) was cultured in RPMI culture medium (Invitrogen/GIBCO) in accordance with the method of Trager and Jensen (reference document: Trager, W. 86 Jensen, J. B. (1976) Science 193, 673-675.). The FCR-3 strain is a strain which takes an approximately 40 hours to undergo one development/proliferation cycle of invasion of merozoites into erythrocytes, formation of ring forms, formation of trophozoites, formation of schizonts, release of mature merozoites, and invasion of the mature merozoites into erythrocytes. To the RPMI culture medium, 0.5 weight % AlubumaxI (Invitrogen), 25 mM HEPES, 24 mM sodium hydrogen carbonate, 0.5 g/L L-glutamine, 50 mg/L hypoxanthine, 25 μg/ml gentamicin (Sigma), and human erythrocytes with 5% hematocrit (provided by a healthy volunteer) were added. Further, synchronized culturing was carried out with the use of 5 weight % d-sorbitol (reference document: Lambros, C. 86 Vanderberg, J. P. (1979) J. Parasitol. 65, 418-420.) to synchronize developments of P. falciparum.
Effects of 2-APB (2-aminoethyl diphenylborinate) and LZ (luzindole) on intraerythrocytic falciparum malaria parasite development were examined with the use of a culture of falciparum malaria parasites in a ring form stage with initial parasitaemia of approximately 1%.
First, 500 μl of the culture was injected into each well of a tissue culture plate (24-well flat-bottom plate, Corning). 2-APB and LZ were dissolved in dimethyl sulfoxide (DMSO, HYBRI-MAX (Registered Trademark), Sigma) to be 10 mM and 100 mM in concentration, respectively. In this way, stock solutions of these compounds were prepared. The stock solutions were diluted with the RPMI culture medium, and were added to each well of the tissue culture plate in an amount to be a predetermined final concentration in the well. Further, DMSO was diluted with the PPMI culture medium and was added to each well of a tissue culture plate in an amount to be a predetermined final concentration in the well, and was used as a control. Culturing was carried out in each well for a predetermined period of time.
After elapse of the predetermined period of time, a drop of the erythrocytes-containing culture in each well of the tissue culture plate was smeared on a glass slide and giemsa-stained. The number of erythrocytes infected with falciparum malaria parasites out of 2000 erythrocytes was counted so as to determine parasitaemia.

[2] = system: falciparum malaria parasites; conditions: cultured 30 hours in presence of 2-APB
Procedure: ER-Tracker Red (Invitrogen). […] ER-Tracker Red was then added to the erythrocyte suspension so as to be 0.5 μM in final concentration, and the mixture was shaken at 200 rpm for 30 minutes at 37° C.

[3] = system: falciparum malaria parasite FCR-3 strain
From the text: (§1) Giemsa-stained smears were observed by Nikon Eclipse 80i microscope (Nikon), photographed by Nikon DXM 1200F camera (Nikon) and uploaded on a personal computer by digital photograph manager software (ACT-1; Nikon). In order to measure falciparum malaria parasite size, 50 falciparum malaria parasites were randomly selected, and areas containing these falciparum malaria parasites were manually delineated with lines on a screen. Area, perimeter, and maximum diameter of the falciparum malaria parasites cells was calculated by WinROOF software package Ver.5.8.1 (Mitani, Japan).
In order to quantitatively examine the effect of 2-APB on intraerythrocytic falciparum malaria parasite development, the area, perimeter and maximum diameter (hereinafter referred to collectively as “three parameters”) of falciparum malaria parasite cells were analyzed at 15 hours, 30 hours, and 40 hours from the start of the synchronized culturing. At 40 hours from the start of the synchronized culturing, only schizonts were analyzed.
In order to investigate an effect of 2-APB in the ring form stage, 100 μM 2-APB was added to falciparum malaria parasites that were being synchronized-cultured, and sizes of the falciparum malaria parasites were measured after 10 hours of culturing and after 20 hours of culturing. In some assays (“removed at 10 h” in (f) of FIG. 6), 100 μM 2-APB was added at start of the culturing and removed after 10 hours of culturing, and then sizes of falciparum malaria parasites were measured after 20 hours of culturing (see (f) of FIG. 6). […] Fifty falciparum malaria parasites were measured in each experimental group. P values compared with the controls (in the presence of DMSO) are given in each panel (two-tailed unpaired t test with Welch's correction).

[4] = system: chloroquine-resistant strain K1 of falciparum malaria parasites; conditions: 100 μM 2-APB; 24 hours
From the text: as §1
(§2) An effect of 2-APB on intraerythrocytic development of a chloroquine-resistant strain K1 of falciparum malaria parasites (P. falciparum) was examined by synchronized culturing malaria parasites in ring forms with initial parasitaemia of approximately 2%. The culturing was terminated at 24 hours, 48 hours, and 72 hours from the start of the synchronized culturing, and thin smears of erythrocytes were prepared for falciparum malaria parasite counting. Culture medium with 100 μM DMSO or 100 μM 2-APB was replaced at 24 hours and 48 hours from the start of the synchronized culturing. […] Parasitaemia of ring forms (Rf), trophozoites (T), early schizonts (ES) and late schizonts (LS) is shown as mean±S.D. of 3 wells. Stages with parasitaemia of less than 0.1% are not shown.

[5] = system: malaria parasites; conditions: cited from earlier work
[6] = system: falciparum malaria parasites (P. falciparum); test: Intracellular fluorescence Ca2+ imaging of P. falciparum in intraerythrocytic stage; format: cell-based
Procedure: Next, 1 ml of the culture of the erythrocytes that had been thus diluted was collected by centrifugation (at 1,000 g for five minutes at room temperature), then resuspended in 350 μL BSA(−) culture medium constituted by the same constituents as the BSA(−) culture medium mentioned above (hereinafter referred to as “erythrocyte resuspension (1)”).
Erythrocytes were then washed once with 10 mL BSA(−) culture medium (1000 g for 5 minutes at room temperature) and resuspended in 600 μL BSA(+) culture medium (the BSA(−) culture medium supplemented with 0.5 weight % Albumax 1 and 25 μg/mL gentamicin (Sigma)) (hereinafter referred to as “erythrocyte resuspension (2)”). Next, 100 μL of the erythrocyte resuspension (2) was inoculated in a 35 mm glass-bottomed dish (MatTek Corp.) coated with 0.1 mg/ml poly-L-lysine. After 30 minutes of incubation in an O2/CO2 incubator, suspended erythrocytes were gently washed with BSA(+) culture medium before collecting.
The glass-bottomed dish was then placed in a culture chamber in which an O2 level, a CO2 level, temperature, and humidity were maintained under conditions (O2 level: 5%, CO2 level, 5%, temperature: 37° C.) used for conventional in vitro culturing of malaria parasites.
The acquisition of the transparent images and acquisition of light emissions were carried out by the true spectral detection method developed by Leica Microsystems. The imaging was carried out at intervals of every 5 to 15 seconds for duration of 300 to 600 seconds. A fluorescence intensity of fluo4-AM was calculated by subtraction of background fluorescence (F) and normalized to minimum fluorescence during the imaging period (Fmin).

[7] = system: chloroquine-resistant strain K1 of falciparum malaria parasites (P. falciparum)
Procedure: as §2

[8] = system: falciparum malaria parasites
Procedure: Specimens to be subjected to the electron microscopy were fixed for approximately 2 hours in 2.5% (V/V) glutaraldehyde buffered with 0.1 M phosphate buffer (pH 7.4, at 4° C.). The specimens were then post-fixed in 1% (w/V) osmium tetroxide for 1 hour.

NCCOB(c1ccccc1)c1ccccc1 [2-APB, 2-aminoethyl diphenylborinate]
Intraerythrocytic development of falciparum malaria parasites ([1]; 100 μM 2-APB vs DMSO controls, 20, 30, 40 hours of synchronized culturing): clearly delayed | Ring form parasitaemia at 45 hours ([1]; 2-APB added at late schizont stage (28 hours)): significantly decreased | Parasitaemia of ring forms at 40 hours ([1]; 2-APB added between trophozoite and early schizont stages (21 hours), compared with the removal cases): greater effect | Number of merozoites formed in each schizont ([1]; 2-APB vs DMSO, 40 hours): significantly smaller | Erythrocyte parasitaemia ([1]; 2-APB, medium replaced at 40 h, 70 hours from start of synchronized culturing): substantially zero | Developmental stage reached ([1]; 2-APB, 20 hours from start of synchronized culturing): remained at the trophozoite stage | Parasite morphology ([1]; cultured in presence of 2-APB, up to 40 hours): abnormal morphology | Parasite development in 2-APB-pretreated erythrocytes ([1]; erythrocytes treated with 2-APB only in advance, 20 and 40 hours): could develop normally | Endoplasmic reticulum tracker signals [2]: became broad and extended to the cytosol | Area, perimeter and maximum diameter of parasite cells ([3]; 100 μM 2-APB present for 10 hours and 20 hours vs DMSO): significantly smaller | Area, perimeter and maximum diameter of parasite cells ([3]; 100 μM 2-APB removed at 10 hours, measured at 20 hours vs DMSO): no statistically significant difference | Area, perimeter and maximum diameter of parasite cells ([3]; 100 μM 2-APB vs DMSO, 15, 30 and 40 hours): significant decreases | Inhibitory effect by area, perimeter and maximum diameter of parasite cells [4]: confirmed | Increase in concentration of calcium ion in cytoplasm brought about by melatonin ([5]; 2-APB administered to malaria parasites): suppressed | Promotion of calcium discharge by 2-APB itself ([5]; malaria parasites): no effect | Spontaneous Ca2+ oscillations ([6]; 100 μM 2-APB, early ring form and trophozoite stages): almost completely blocked | Ca2+ fluctuations ([6]; 100 μM 2-APB, late ring form, schizont and merozoite stages): no notable effect | Amplitude of periodic Ca2+ fluctuations (mean max minus mean min F/Fmin) ([6]; 2-APB, late ring form, schizont, merozoite stages, quantitative analysis): statistically significant effect of 2-APB was observed only in the merozoite stage | Parasitaemia of trophozoites ([7]; 100 μM 2-APB, 24 hours): tendency towards decreasing parasitaemia | Intraerythrocytic malaria parasite development ([7]; 2-APB vs DMSO, 48 hours): delayed | Number of erythrocytes infected with falciparum malaria parasite ([7]; 2-APB vs DMSO, 72 hours): much lesser | Effect of 2-APB on the K-1 strain ([7]; 24 hour from start of assay): relatively weak | Ultrafine structure (electron micrographs) ([8]; 100 μM 2-APB, 30 hours): highly dense chromatin masses in the nucleus and highly dense degeneration | Nuclear envelope and endoplasmic reticulum in electron micrographs ([8]; cultured in presence of 2-APB): dilated nuclear envelope and endoplasmic reticulum

C/C=C/[C@H]1O[C@@](O)([C@@H](C)[C@H](O)[C@H](C)[C@H]2OC(=O)/C(OC)=C/C(C)=C/[C@@H](C)[C@@H](O)[C@@H](CC)[C@@H](O)[C@H](C)C/C(C)=C/C=C/[C@@H]2OC)C[C@@H](O[C@H]2C[C@@H](O)[C@H](OC(N)=O)[C@@H](C)O2)[C@@H]1C [CMA, concanamycin A]
Ca2+ oscillations ([6]; pre-treatment with 100 nM CMA, early ring forms and trophozoites): no effect

CC(=O)NCCc1c(Cc2ccccc2)[nH]c2ccccc12 [LZ, luzindole]
Intraerythrocytic falciparum malaria parasite development ([1]; 250 μM LZ, 20, 40, 70 hours): clearly inhibited | Developmental stage reached ([1]; 250 μM LZ, 20 hours): remained in a transition stage from ring forms to early trophozoites | Developmental stage reached ([1]; 250 μM LZ, 40 hours): most of the falciparum malaria parasites remained in the transition stage from ring forms to early trophozoites | Developmental stage reached ([1]; 250 μM LZ, 70 hours): remained in the transition stage from ring forms to early trophozoites even at 70 hours

C/C=C(/C)C(=O)O[C@H]1C(C)=C2[C@H]([C@@H]1OC(=O)CCCCCCC)[C@@](C)(OC(C)=O)C[C@H](OC(=O)CCC)[C@@]1(O)[C@H]2OC(=O)[C@@]1(C)O [Tg, thapsigargin]
Ca2+ oscillations ([6]; pre-treatment with 2 μM Tg for 30 minutes, early ring forms and trophozoites): blocked

COc1ccc2c(c1)CC[C@@H]1[C@@H]2CC[C@]2(C)[C@@H](NCCCCCCN3C(=O)C=CC3=O)CC[C@@H]12 [U73122]
Ca2+ oscillations ([6]; 5 minutes pre-treatment with 10 μM U73122, early ring form and trophozoite stages): almost completely blocked
